Assay results reported in US20240279202A1 (NURIX THERAPEUTICS, INC., priority 2021, published 2024).

Biological target: T1, ITK (Mus musculus, UniProt Q03526)
T1 construct: mice were sacrificed and splenocytes were isolated and used to prepare protein lysates; from tissue; host or cells: mouse splenocytes (spleen) after oral dosing
T1 sequence (Q03526 1-625): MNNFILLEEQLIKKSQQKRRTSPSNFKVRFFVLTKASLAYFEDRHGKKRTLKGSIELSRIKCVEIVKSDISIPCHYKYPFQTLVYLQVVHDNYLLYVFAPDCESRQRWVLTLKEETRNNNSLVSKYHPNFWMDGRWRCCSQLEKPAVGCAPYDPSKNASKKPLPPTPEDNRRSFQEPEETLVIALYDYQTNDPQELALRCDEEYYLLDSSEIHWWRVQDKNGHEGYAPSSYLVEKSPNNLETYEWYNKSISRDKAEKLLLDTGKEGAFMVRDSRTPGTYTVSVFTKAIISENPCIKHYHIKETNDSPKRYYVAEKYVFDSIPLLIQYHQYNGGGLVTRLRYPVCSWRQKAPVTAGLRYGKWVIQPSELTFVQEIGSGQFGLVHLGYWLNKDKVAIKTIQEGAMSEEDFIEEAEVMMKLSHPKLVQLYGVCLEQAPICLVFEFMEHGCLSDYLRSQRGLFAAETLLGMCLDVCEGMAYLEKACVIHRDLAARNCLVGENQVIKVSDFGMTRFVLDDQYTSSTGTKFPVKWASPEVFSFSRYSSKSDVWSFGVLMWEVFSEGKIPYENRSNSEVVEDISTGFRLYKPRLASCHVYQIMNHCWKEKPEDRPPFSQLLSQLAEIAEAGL
Assay: Mouse PD assay for ITK degradation (Western blot, splenocytes after oral administration)
Format: in vivo
Settings: for ITK degradation in vivo at 6 hours (FIG. 3A, FIG. 4A) / ITK degradation in vivo at 24 hours (FIG. 3A, FIG. 4A): mice, oral, splenocytes, Western blot; for ITK (%) 90 mpk PO, 6 h: percent ITK remaining in mouse splenocytes relative to vehicle
Procedure, shortened: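 Mice dosed orally, some compounds at 90 mg/kg; splenocytes harvested after 6 hours (some 24 hours). ITK measured by Western blot of equal-protein lysates, normalized to actin. Values are % ITK remaining relative to vehicle-control mean.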

Row | ITK degradation in vivo at 6 hours (FIG. 3A, FIG. 4A) | ITK (%) 90 mpk PO, 6 h [%] | ITK degradation in vivo at 24 hours (FIG. 3A, FIG. 4A) | SMILES
1 | degraded ITK in vivo | 14 | degraded ITK | C[C@@H](C(=O)N(C)c1ccc2cc(-c3n[nH]c4c3C[C@@H]3C(F)(F)[C@]3(C)C4)[nH]c2c1)N1CCN(CC2CCN(c3ccc(N4CCC(=O)NC4=O)cn3)CC2)CC1 [Compound 18, (S)—N-(2-((4aS,5aR)-5,5-difluoro-5a-methyl-1,4,4a,5,5a,6-hexahydrocyclopropa[f]indazol-3-yl)-1H-indol-6-yl)-2-(4-((1-(5-(2,4-dioxotetrahydropyrimidin-1(2H)-yl)pyridin-2-yl)piperidin-4-yl)methyl)piperazin-1-yl)-N-methylpropanamide]
2 | – | 108 | – | CN(C(=O)C1CN(C2CCN(c3ccc4c(c3)C(=O)N(C3CCC(=O)NC3=O)C4=O)CC2)C1)c1ccc2cc(-c3n[nH]c4c3CCC(C)(C)C4)[nH]c2c1 (centres unmarked) [Compound 35, N-(2-(6,6-dimethyl-4,5,6,7-tetrahydro-1H-indazol-3-yl)-1H-indol-6-yl)-1-(1-(2-(2,6-dioxopiperidin-3-yl)-1,3-dioxoisoindolin-5-yl)piperidin-4-yl)-N-methylazetidine-3-carboxamide]
3 | – | 82 | – | C[C@@]12Cc3[nH]nc(C(=O)Nc4cnn(CC5CN(C(=O)C6CN(C7CCN(c8ccc9c(c8)C(=O)N(C8CCC(=O)NC8=O)C9=O)CC7)C6)C5)c4)c3C[C@@H]1C2(F)F (stereo partly drawn) [Compound 42, (4aS,5aR)-N-(1-((1-(1-(1-(2-(2,6-dioxopiperidin-3-yl)-1,3-dioxoisoindolin-5-yl)piperidin-4-yl)azetidine-3-carbonyl)azetidin-3-yl)methyl)-1H-pyrazol-4-yl)-5,5-difluoro-5a-methyl-1,4,4a,5,5a,6-hexahydrocyclopropa[f]indazole-3-carboxamide]
4 | – | 35 | – | Cn1c(=O)n([C@@H]2CCC(=O)NC2=O)c2cccc(N3CCC(CN4CCN(C(=O)c5ccc6cc(-c7n[nH]c8c7CCC(C)(C)C8)[nH]c6c5)CC4)CC3)c21 [Compound 48, (R)-3-(4-(4-((4-(2-(6,6-dimethyl-4,5,6,7-tetrahydro-1H-indazol-3-yl)-1H-indole-6-carbonyl)piperazin-1-yl)methyl)piperidin-1-yl)-3-methyl-2-oxo-2,3-dihydro-1H-benzo[d]imidazol-1-yl)piperidine-2,6-dione]
5 | – | 129 | – | C[C@@]12Cc3[nH]nc(C(=O)Nc4cnn(CC5CN(C(=O)C6CN(c7ccc(C8CCC(=O)NC8=O)cn7)C6)C5)c4)c3C[C@@H]1C2(F)F (stereo partly drawn) [Compound 49, (4aS,5aR)-N-(1-((1-(1-(5-(2,6-dioxopiperidin-3-yl)pyridin-2-yl)azetidine-3-carbonyl)azetidin-3-yl)methyl)-1H-pyrazol-4-yl)-5,5-difluoro-5a-methyl-1,4,4a,5,5a,6-hexahydrocyclopropa[f]indazole-3-carboxamide]

The remaining lines, values behind:

Row | SMILES | ITK degradation in vivo at 6 hours (FIG. 3A, FIG. 4A) | ITK (%) 90 mpk PO, 6 h [%] | ITK degradation in vivo at 24 hours (FIG. 3A, FIG. 4A)
6 | Cn1c(=O)n(C2CCC(=O)NC2=O)c2cccc(N3CCC(CN4CCC5(CC4)CCN(c4ccc6cc(-c7n[nH]c8c7C[C@@H]7C(F)(F)[C@]7(C)C8)[nH]c6c4)C5=O)CC3)c21 (stereo partly drawn) [Compound 16, 3-(4-(4-((2-(2-((4aS,5aR)-5,5-difluoro-5a-methyl-1,4,4a,5,5a,6-hexahydrocyclopropa[f]indazol-3-yl)-1H-indol-6-yl)-1-oxo-2,8-diazaspiro[4.5]decan-8-yl)methyl)piperidin-1-yl)-3-methyl-2-oxo-2,3-dihydro-1H-benzo[d]imidazol-1-yl)piperidine-2,6-dione] | degraded ITK in vivo | 77 | –
7 | C[C@@H](C(=O)N(C)c1ccc2cc(-c3n[nH]c4c3C[C@@H]3C(F)(F)[C@]3(C)C4)[nH]c2c1)N1CCN(CC2CCN(c3ccc(C4CCC(=O)NC4=O)cn3)CC2)CC1 (stereo partly drawn) [Compound 17, (2S)—N-(2-((4aS,5aR)-5,5-difluoro-5a-methyl-1,4,4a,5,5a,6-hexahydrocyclopropa[f]indazol-3-yl)-1H-indol-6-yl)-2-(4-((1-(5-(2,6-dioxopiperidin-3-yl)pyridin-2-yl)piperidin-4-yl)methyl)piperazin-1-yl)-N-methylpropanamide] | degraded ITK in vivo | 20 | degraded ITK
8 | C[C@@]12Cc3[nH]nc(-c4cc5ccc(N6CCC7(CCN(CC8CCN(c9ccc(C%10CCC(=O)NC%10=O)cn9)CC8)CC7)C6=O)cc5[nH]4)c3C[C@@H]1C2(F)F (stereo partly drawn) [Compound 19, 3-(6-(4-((2-(2-((4aS,5aR)-5,5-difluoro-5a-methyl-1,4,4a,5,5a,6-hexahydrocyclopropa[f]indazol-3-yl)-1H-indol-6-yl)-1-oxo-2,8-diazaspiro[4.5]decan-8-yl)methyl)piperidin-1-yl)pyridin-3-yl)piperidine-2,6-dione] | – | 8 | –
9 | CN(C(=O)CCC1CCN(c2ccc(C3CCC(=O)NC3=O)cn2)CC1)c1ccc2cc(-c3n[nH]c4c3C[C@@H]3C(F)(F)[C@]3(C)C4)[nH]c2c1 (stereo partly drawn) [Compound 21, N-(2-((4aS,5aR)-5,5-difluoro-5a-methyl-1,4,4a,5,5a,6-hexahydrocyclopropa[f]indazol-3-yl)-1H-indol-6-yl)-3-(1-(5-(2,6-dioxopiperidin-3-yl)pyridin-2-yl)piperidin-4-yl)-N-methylpropanamide] | – | 76 | –
10 | CC1(C)CCc2c(-c3cc4ccc(N5CCC6(CCN(CC7CCN(c8ccc(C9CCC(=O)NC9=O)cn8)CC7)CC6)C5=O)cc4[nH]3)n[nH]c2C1 (centres unmarked) [Compound 22, 3-(6-(4-((2-(2-(6,6-dimethyl-4,5,6,7-tetrahydro-1H-indazol-3-yl)-1H-indol-6-yl)-1-oxo-2,8-diazaspiro[4.5]decan-8-yl)methyl)piperidin-1-yl)pyridin-3-yl)piperidine-2,6-dione] | – | 76 | –
11 | C[C@@H](C(=O)N(C)c1ccc2cc(-c3n[nH]c4c3CCC(C)(C)C4)[nH]c2c1)N1CCN(C[C@H]2CCN(c3ccc4c(c3)C(=O)N(C3CCC(=O)NC3=O)C4=O)C2)CC1 (stereo partly drawn) [Compound 33, (2S)—N-(2-(6,6-dimethyl-4,5,6,7-tetrahydro-1H-indazol-3-yl)-1H-indol-6-yl)-2-(4-(((3R)-1-(2-(2,6-dioxopiperidin-3-yl)-1,3-dioxoisoindolin-5-yl)pyrrolidin-3-yl)methyl)piperazin-1-yl)-N-methylpropanamide] | – | 67 | –
12 | C[C@@H](C(=O)N(C)c1ccc2cc(-c3n[nH]c4c3CCC(C)(C)C4)[nH]c2c1)N1CCN(C(=O)C2CN(C3CCN(c4ccc5c(c4)C(=O)N(C4CCC(=O)NC4=O)C5=O)CC3)C2)CC1 (stereo partly drawn) [Compound 34, (2S)—N-(2-(6,6-dimethyl-4,5,6,7-tetrahydro-1H-indazol-3-yl)-1H-indol-6-yl)-2-(4-(1-(1-(2-(2,6-dioxopiperidin-3-yl)-1,3-dioxoisoindolin-5-yl)piperidin-4-yl)azetidine-3-carbonyl)piperazin-1-yl)-N-methylpropanamide] | – | 108 | –
13 | C[C@@]12Cc3[nH]nc(C(=O)Nc4cnn(CC5CN(C(=O)C6CN(c7ccc8c(c7)C(=O)N(C7CCC(=O)NC7=O)C8=O)C6)C5)c4)c3C[C@@H]1C2(F)F (stereo partly drawn) [Compound 43, (4aS,5aR)-N-(1-((1-(1-(2-(2,6-dioxopiperidin-3-yl)-1,3-dioxoisoindolin-5-yl)azetidine-3-carbonyl)azetidin-3-yl)methyl)-1H-pyrazol-4-yl)-5,5-difluoro-5a-methyl-1,4,4a,5,5a,6-hexahydrocyclopropa[f]indazole-3-carboxamide] | degraded ITK in vivo | 7 | –
14 | C[C@@]12Cc3[nH]nc(C(=O)Nc4cnn(CC5CN(C[C@H]6CCN(c7ccc8c(c7)C(=O)N(C7CCC(=O)NC7=O)C8=O)C6)C5)c4)c3C[C@@H]1C2(F)F (stereo partly drawn) [Compound 44, (4aS,5aR)-N-(1-((1-(((3R)-1-(2-(2,6-dioxopiperidin-3-yl)-1,3-dioxoisoindolin-5-yl)pyrrolidin-3-yl)methyl)azetidin-3-yl)methyl)-1H-pyrazol-4-yl)-5,5-difluoro-5a-methyl-1,4,4a,5,5a,6-hexahydrocyclopropa[f]indazole-3-carboxamide] | degraded ITK in vivo | 75 | –
15 | Cn1c(=O)n([C@H]2CCC(=O)NC2=O)c2cccc(N3CCC(CN4CCN(C(=O)c5ccc6cc(-c7n[nH]c8c7CCC(C)(C)C8)[nH]c6c5)CC4)CC3)c21 [Compound 46, (S)-3-(4-(4-((4-(2-(6,6-dimethyl-4,5,6,7-tetrahydro-1H-indazol-3-yl)-1H-indole-6-carbonyl)piperazin-1-yl)methyl)piperidin-1-yl)-3-methyl-2-oxo-2,3-dihydro-1H-benzo[d]imidazol-1-yl)piperidine-2,6-dione] | – | 102 | –
16 | CC1(C)CCc2c(-c3cc4ccc(C(=O)N5CCN(CC6CCN(c7ccc(C8CCC(=O)NC8=O)cn7)CC6)CC5)cc4[nH]3)n[nH]c2C1 (centres unmarked) [Compound 47, 3-(6-(4-((4-(2-(6,6-dimethyl-4,5,6,7-tetrahydro-1H-indazol-3-yl)-1H-indole-6-carbonyl)piperazin-1-yl)methyl)piperidin-1-yl)pyridin-3-yl)piperidine-2,6-dione] | – | 11 | –
